Legend:
HIV-1 = assay: Inhibition of HIV-1 replication in MT-2 lymphocytes; conditions: for TI, therapeutic index (CC50/IC50): MT-2 CC50 / HIV-1 IC50
HIV = conditions: cited from earlier work
[1] = test system: noninfected H9 lymphocytes; conditions: cited from earlier work
IL-10 = conditions: at 10 μg mL^-1; cited from earlier work
IL-12 = conditions: at 10 μg mL^-1; cited from earlier work
[2] = test system: tumor necrosis factor-α (TNFα); conditions: at 10 μg mL^-1; cited from earlier work
[3] = Cytotoxicity against non-infected MT-2 lymphocytes; conditions: human

| Molecule | CC50 (MT-2 lymphocytes) | TI, therapeutic index (CC50/IC50) (HIV-1) | other results |
| --- | --- | --- | --- |
| Cc1cn([C@H]2C[C@H](N=[N+]=[N-])[C@@H](CO)O2)c(=O)[nH]c1=O [AZT, reference compound] | > 50 µM | >641 |  |
| C=C[C@@]1(C)COC(=O)[C@]12OC(c1ccccc1)=CC2=O [compound 18, hyperolactone C] | 925 µM | 32.0 |  |
| 24-epi-biyouyanagin A [2a] | 285 µM |  |  |
| 4-epi-hyperolactone C [compound 16] | 462 µM |  |  |
| C=C[C@@]1(C)COC(=O)[C@]12O[C@]1(c3ccccc3)[C@H](C2=O)[C@H]2[C@H]([C@H](C)CCC=C(C)C)CC=C(C)[C@H]21 [2b, biyouyanagin A] |  | 7.5 | EC50, inhibition of HIV replication in H9 lymphocytes (HIV): 0.798 µg/mL; EC50, noninfected H9 lymphocytes [1]: > 25 µg/mL; LPS-induced cytokine production, IL-10 (IL-10): 0.03; LPS-induced cytokine production, IL-12 (IL-12): 0.02; LPS-induced cytokine production, TNFα [2]: 0.48; CC50 [3]: 198 µM; IC50 (HIV-1; Human immunodeficiency virus 1, Lymphocyte, read-out: HIV-1 IC50): 26 µM |
